Here are results for 28 compounds from US9273057B2 (Bristol-Myers Squibb Company, priority 2012, dated 2016).

pIC50: −log10 of the molar value.

In this assay the target is CK2A1 (CK2α/β) (Homo sapiens, UniProt P68400). Description: CK2 kinase assay, CK2A1 (CK2α/β). It is filed as biochemical. Conditions: Table A; read-out: CK2A1 (CK2α/β) (IC50).
Chain of CK2A1 (CK2α/β) (P68400 whole entry, species assumed): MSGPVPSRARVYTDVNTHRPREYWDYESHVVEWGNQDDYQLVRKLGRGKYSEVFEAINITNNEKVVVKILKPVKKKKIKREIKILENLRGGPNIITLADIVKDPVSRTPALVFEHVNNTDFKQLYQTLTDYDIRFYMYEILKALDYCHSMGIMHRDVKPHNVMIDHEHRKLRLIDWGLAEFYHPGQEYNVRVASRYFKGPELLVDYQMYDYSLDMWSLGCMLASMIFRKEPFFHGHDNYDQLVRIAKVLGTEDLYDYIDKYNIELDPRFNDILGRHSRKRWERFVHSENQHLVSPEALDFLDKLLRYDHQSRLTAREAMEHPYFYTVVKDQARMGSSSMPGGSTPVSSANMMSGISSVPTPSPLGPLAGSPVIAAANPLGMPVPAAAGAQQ
Chain of CK2A1 (CK2α/β) (P67870 whole entry partner, species assumed): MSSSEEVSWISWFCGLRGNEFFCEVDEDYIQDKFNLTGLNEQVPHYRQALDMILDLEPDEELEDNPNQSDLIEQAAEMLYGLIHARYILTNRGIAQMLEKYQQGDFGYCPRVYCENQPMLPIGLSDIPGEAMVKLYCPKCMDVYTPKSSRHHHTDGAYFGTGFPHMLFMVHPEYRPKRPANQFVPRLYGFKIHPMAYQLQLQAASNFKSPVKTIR
`CCNc1nc(Nc2ccc3c(c2)c(C#N)cn3C2CCN(C3CNC3)CC2)nn2c(C#N)cnc12` [Example 832, 2-((1-(1-(azetidin-3-yl)piperidin-4-yl)-3-cyano-1H-indol-5-yl)amino)-4-(ethylamino)imidazo[2,1-f][1,2,4]triazine-7-carbonitrile]: the pIC50 was 9.27. Next, `N#Cc1cc(Nc2nc(NC3CC3)c3ncc(C#N)n3n2)c(Cl)cc1NC1CCN(C2COC2)CC1` [Example 411, 2-((2-chloro-5-cyano-4-((1-(oxetan-3-yl)piperidin-4-yl)amino)phenyl)amino)-4-(cyclopropylamino)imidazo[2,1-f][1,2,4]triazine-7-carbonitrile]: 9.12. Take `N#Cc1cnc2c(NC3CC3)nc(Nc3cc(C(F)F)cc(N4CCN(C5COC5)CC4)c3Cl)nn12` [Example 242, 2-((2-Chloro-5-(difluoromethyl)-3-(4-(oxetan-3-yl)piperazin-1-yl)phenyl)amino)-4-(cyclopropylamino)imidazo[2,1-f][1,2,4]triazine-7-carbonitrile]: the pIC50 is 8.89. To `CCNc1nc(Nc2cc(C#N)cc(N3CC[C@@H]4[C@@H](C3)OC(=O)N4[C@H]3CCOC3)c2Cl)nn2c(C#N)cnc12` (single isomer, unassigned) [Example 843] belongs 8.67; to `CCNc1nc(Nc2cc(C#N)cc(N3CC[C@@H](NC(=O)OC)[C@@H](NCC(O)C(F)(F)F)C3)c2Cl)nn2c(C#N)cnc12` (stereo partly drawn) [Example 761, methyl N-[(3S,4R)-1-(2-chloro-5-cyano-3-{[7-cyano-4-(ethylamino)imidazo[2,1-f][1,2,4]triazin-2-yl]amino}phenyl)-3-[(3,3,3-trifluoro-2-hydroxypropyl)amino]piperidin-4-yl]carbamate], 8.00. For `CCOCCC(=O)N1CC(N2CCN(c3cc(C#N)cc(Nc4nc(NC5CC5)c5ncc(C#N)n5n4)c3Cl)CC2)C1` [Example 511, 2-[(2-chloro-5-cyano-3-{4-[1-(3-ethoxypropanoyl)azetidin-3-yl]piperazin-1-yl}phenyl)amino]-4-(cyclopropylamino)imidazo[2,1-f][1,2,4]triazine-7-carbonitrile], the pIC50 is 8.34.

As to `CCNc1nc(Nc2cc(C#N)cc(N3CCN(CC(C)(CO)CO)CC3)c2Cl)nn2c(C#N)cnc12` [Example 604, 2-[(2-chloro-5-cyano-3-{4-[3-hydroxy-2-(hydroxymethyl)-2-methylpropyl]piperazin-1-yl}phenyl)amino]-4-(ethylamino)imidazo[2,1-f][1,2,4]triazine-7-carbonitrile], the pIC50 was 9.00. Next, `COCCOCC(=O)N1CCN(c2cc(C#N)cc(Nc3nc(NC4CC4)c4ncc(C#N)n4n3)c2Cl)CC1` [Example 88, 2-((2-chloro-5-cyano-3-(4-((2-methoxyethoxy)acetyl)-1-piperazinyl)phenyl)amino)-4-(cyclopropylamino) imidazo[2,1-f][1,2,4] triazine-7-carbonitrile]: 9.22; `COC(=O)Nc1cc(Nc2nc(NC3CC3)c3ncc(C#N)n3n2)c(Cl)c(N2CC(N3CCOCC3)C2)c1` [Example 201, methyl (4-chloro-3-((7-cyano-4-(cyclopropylamino)imidazo[2,1-f][1,2,4]triazin-2-yl)amino)-5-(3-(4-morpholinyl)-1-azetidinyl)phenyl)carbamate]: 8.53.

Regarding `N#Cc1cnc2c(NC3CC3)nc(Nc3cc(C(F)F)cc(N4CC(N5CCOCC5)C4)c3Cl)nn12` [Example 279, 2-((2-chloro-5-(difluoromethyl)-3-(3-(4-morpholinyl)-1-azetidinyl)phenyl)amino)-4-(cyclopropylamino)imidazo[2,1-f][1,2,4]triazine-7-carbonitrile], the pIC50 is 9.12. Next, `N#Cc1cc(Nc2nc(NC3CC3)c3ncc(C#N)n3n2)c(Cl)c(N2CCN(C3CN(C(=O)CCn4ccnc4)C3)CC2)c1` [Example 496, 2-{[2-chloro-5-cyano-3-(4-{1-[3-(1H-imidazol-1-yl)propanoyl]azetidin-3-yl}piperazin-1-yl)phenyl]amino}-4-(cyclopropylamino)imidazo[2,1-f][1,2,4]triazine-7-carbonitrile]: 8.74; `CC(=O)N1CC(N2CCC(c3cc(C#N)cc(Nc4nc(NC5CC5)c5ncc(C#N)n5n4)c3F)CC2)C1` [Example 637, 2-((3-(1-(1-acetylazetidin-3-yl)piperidin-4-yl)-2-fluoro-5-cyanophenyl)amino)-4-(cyclopropylamino)imidazo[2,1-f][1,2,4]triazine-7-carbonitrile]: 8.32. As for `N#Cc1cc(CNC2CCOCC2)c(Cl)c(Nc2nc(NC3CC3)c3ncc(C#N)n3n2)c1` [Example 664, 2-((2-chloro-5-cyano-3-(((tetrahydro-2H-pyran-4-yl)amino)methyl)phenyl)amino)-4-(cyclopropylamino)imidazo[2,1-f][1,2,4]triazine-7-carbonitrile], the pIC50 is 9.01. Consider `CC(C)(O)[C@H](F)CNC1CCN(c2cc(C#N)cc(Nc3nc(NC4CC4)c4ncc(C#N)n4n3)c2Cl)CC1` [Example 137, 2-((2-chloro-5-cyano-3-(4-(((2R)-2-fluoro-3-hydroxy-3-methylbutyl)amino)-1-piperidinyI)phenyl)amino)-4-(cyclopropylamino)imidazo [2,1-f][1,2,4]triazine-7-carbonitrile], for which the pIC50 was 8.51.

Regarding `CO[C@H](C)C(=O)N1CC(N2CCN(c3cc(C#N)cc(Nc4nc(NC5CC5)c5ncc(C#N)n5n4)c3Cl)CC2)C1` [Example 513, 2-{[2-chloro-5-cyano-3-(4-{1-[(2R)-2-methoxypropanoyl]azetidin-3-yl}piperazin-1-yl)phenyl]amino}-4-(cyclopropylamino)imidazo[2,1-f][1,2,4]triazine-7-carbonitrile], the pIC50 was 8.51. On to `N#Cc1cc(Nc2nc(NC3CC3)c3ncc(C#N)n3n2)c(Cl)c(C(F)C2CCNCC2)c1` (stereo not shown) [Example 662, 2-((2-chloro-5-cyano-3-(fluoro(piperidin-4-yl)methyl)phenyl)amino)-4-(cyclopropylamino)imidazo[2,1-f][1,2,4]triazine-7-carbonitrile], for which the pIC50 is 9.32. To `COC(=O)N1CC(N2CCN(c3cc(C#N)cc(Nc4nc(NC5CC5)c5ncc(C#N)n5n4)c3Cl)CC2)C1` [Example 53, methyl 3-(4-(2-chloro-5-cyano-3-((7-cyano-4-(cyclopropylamino)imidazo[2,1-f][1,2,4]triazin-2-yl)amino)phenyl)-1-piperazinyl)-1-azetidinecarboxylate] belongs 8.57; to `N#Cc1cc(Nc2nc(NC3CC3)c3ncc(C#N)n3n2)c(Cl)c(C2CCN(C3CCC3O)CC2)c1` (single isomer, unassigned) [Example 645, Cis and trans 2-((2-chloro-5-cyano-3-(1-(2-hydroxycyclobutyl)piperidin-4-yl)phenyl)amino)-4-(cyclopropylamino)imidazo[2,1-f][1,2,4]triazine-7-carbonitrile], 8.76; to `CC(C)(O)C1CCN(C2CN(c3cc(C#N)cc(Nc4nc(NC5CC5)c5ncc(C#N)n5n4)c3Cl)C2)CC1` [Example 158], 9.19.

As for `CC(CCc1cc(Cl)c(Nc2nc(NC3CC3)c3ncc(C#N)n3n2)cc1C#N)N1CC(O)C1` (stereo not shown) [Example 724, 2-({2-chloro-5-cyano-4-[3-(3-hydroxyazetidin-1-yl)butyl]phenyl}amino)-4-(cyclopropylamino)imidazo [2,1-f][1,2,4]triazine-7-carbonitrile], the pIC50 was 8.82. Consider `COC1CCN(C2CN(c3cc(C#N)cc(Nc4nc(NC5CC5)c5ncc(C#N)n5n4)c3Cl)C2)CC1` [Example 164], for which the pIC50 was 9.24.

As to `N#Cc1cnc2c(NC3CC3)nc(Nc3cc(C(F)F)cc(N4CCC(O)CC4)c3Cl)nn12` [Example 255, 2-((2-chloro-5-(difluoromethyl)-3-(4-hydroxy-1-piperidinyl)phenyl)amino)-4-(cyclopropylamino)imidazo[2,1-f][1,2,4]triazine-7-carbonitrile], the pIC50 is 9.28. For the compound `CCNc1nc(Nc2cc(C#N)cc(N3CCN(C4CN(C(=O)OC)C4)CC3)c2Cl)nn2c(C#N)cnc12` [Example 101, methyl 3-(4-(2-chloro-5-cyano-3-((7-cyano-4-(ethylamino)imidazo [2,1-f][1,2,4]triazin-2-yl)amino)phenyl)-1-piperazinyl)-1-azetidinecarboxylate], the pIC50 is 8.90. To `N#Cc1cc(Nc2nc(NC3CC3)c3ncc(C#N)n3n2)c(Cl)c(N2CCN(C3CN(C(=O)C4CCCO4)C3)CC2)c1` (stereo not shown) [Example 517, 2-[(2-chloro-5-cyano-3-{4-[1-(oxolane-2-carbonyl)azetidin-3-yl]piperazin-1-yl}phenyl)amino]-4-(cyclopropylamino)imidazo[2,1-f][1,2,4]triazine-7-carbonitrile] belongs 8.44; to `N#Cc1cc(CNCCN2CCOCC2)c(Cl)c(Nc2nc(NC3CC3)c3ncc(C#N)n3n2)c1` [Example 466, 2-{[2-chloro-5-cyano-3-({[2-(morpholin-4-yl)ethyl]amino}methyl)phenyl]amino}-4-(cyclopropylamino)imidazo[2,1-f][1,2,4]triazine-7-carbonitrile], 8.88. To `C[C@@H]1OCC[C@@H]1NC1CCN(c2cc(C#N)cc(Nc3nc(NC4CC4)c4ncc(C#N)n4n3)c2Cl)CC1` (racemic) [Example 123, (+/−) 2-((2-chloro-5-cyano-3-(4-(((2S,3S)-2-methyltetrahydro-3-furanyl)amino)-1-piperidinyl)phenyl)amino)-4-(cyclopropylamino)imidazo [2,1-f][1,2,4]triazine-7-carbonitrile] belongs 9.26; to `N#Cc1cc(Nc2nc(NC3CC3)c3ncc(C#N)n3n2)c(F)cc1F` [Example 414, 2-((5-cyano-2,4-difluorophenyl)amino)-4-(cyclopropylamino)imidazo[2,1-f][1,2,4]triazine-7-carbonitrile], 9.00. `N#Cc1cnc2c(NC3CC3)nc(Nc3cc(C(F)F)cc(N4CCC(C(=O)NC5COC5)CC4)c3Cl)nn12` [Example 547, 1-(2-chloro-3-((7-cyano-4-(cyclopropylamino)imidazo[2,1-f][1,2,4]triazin-2-yl)amino)-5-(difluoromethyl)phenyl)-N-(oxetan-3-yl)piperidine-4-carboxamide]: the pIC50 was 8.64.
